In PubChem BioAssay AID1996:
In brackets after ≈: the same amount, converted by molar mass.

Conditions: buffer; pH 7.4; 200.0 µM

SMILES | solubility kinetic [µg/mL]
NC(=O)Cn1c(=O)n(-c2ccccc2)c(=O)c2oc3ccccc3c21 | 2.6 (≈ 7.75 µM)
Clc1ccc(C2Nc3cccc4cccc(c34)N2)cc1 | 7.7 (≈ 27.4 µM)
CC1(C)C2C(Cl)(Cl)C2(C)c2ccccc2N1C=O (centres undefined) | 38.3 (≈ 135 µM)
Cn1cc(S(=O)(=O)N2CCCC2)cc1C(=O)O | > 38.7
COCC(C)n1c(SCC(=O)Nc2c(C)n(C)n(-c3ccccc3)c2=O)nc2ccccc2c1=O (centres undefined) | > 74
O=C(COC(=O)C1(c2cccc(F)c2)CCCC1)NCc1cccs1 | 16.2 (≈ 44.8 µM)
O=C(COC(=O)COc1ccccc1F)NCc1ccco1 | > 46.1
Cc1ccc2nc(-c3ccncc3)cc(C(=O)NCc3ccccc3F)c2c1 | 2.5 (≈ 6.73 µM)
Cc1ccc(N(CC(=O)NC(C)(C)C)C(=O)CCC(=O)Nc2nccs2)cc1C | 12.2 (≈ 29.3 µM)
CC(=O)c1cccc(NC(=S)Nc2cccc3ccccc23)c1 | 10.6 (≈ 33.1 µM)
Cc1ccc(NC(=O)CCC(=O)Nc2ccc(C)cc2)cc1 | < 0.3
COc1ccc(OS(=O)(=O)c2c(C)noc2C)cc1 | 29.3 (≈ 103 µM)
Cc1cc(O)c(NC(=O)c2cccc([N+](=O)[O-])c2)cc1C | < 0.3
COc1cccc(-n2c(SCc3ccccn3)nc3c(c2=O)SCC3)c1 | 54.1 (≈ 141 µM)
O=C(NCc1ccccn1)Nc1cccc(F)c1 | 35.9 (≈ 146 µM)
CC(C)c1ccc(N=Cc2c(O)c3ccccc3oc2=O)cc1 | 4.3 (≈ 14 µM)
CCOC(=O)NC(=O)CSc1ccc(S(=O)(=O)N2CCCCC2)cn1 | > 58.1
CC1Cn2c(nc3sc4c(c3c2=O)CC(C)(C)OC4)N1CCO (centres undefined) | > 50.3
O=C(CSc1ccc([N+](=O)[O-])cn1)Nc1nccs1 | 1.9 (≈ 6.41 µM)
CCC(=NCCc1ccc(OC)c(OC)c1)C1=C(O)CC(C)(C)CC1=O | 47.3 (≈ 132 µM)
COc1ccccc1CC1CC(=O)N(c2ccccc2)C1=O (centres undefined) | > 44.3
O=C(COc1cccnc1[N+](=O)[O-])c1c[nH]c2ccccc12 | 4.3 (≈ 14.5 µM)
CC(C)(C)NC(=O)c1cccc2c1-c1ccccc1C2=O | 29.8 (≈ 107 µM)
Cc1noc(C)c1NC(=O)N1CCN(Cc2ccccc2)CC1 | > 47.2

SMILES | solubility kinetic [µg/mL]
Cl.N[C@@H](CCl)C(=O)O | > 24
Nc1ccc(C(=O)Nc2nccs2)cc1 | > 32.9
NC(=O)N1CCc2ccccc21 | > 24.3
CCc1cccc(OCC(=O)Nc2c[nH]c(=O)[nH]c2=O)c1 | 0.9 (≈ 3.11 µM)
CCCc1nc2ccccc2n1C(=S)SC | 12.3 (≈ 49.1 µM)
N/C(=N/O)c1nc(N2CCCC2)nc(N2CCCC2)n1 | > 41.6
CN(CCc1ccccn1)C(=O)c1cccnc1Oc1ccccc1 | > 50
Cc1ccc[n+](CC(=O)Nc2ccc([N+](=O)[O-])cc2)c1.[Cl-] | > 46.2
O=C(Nc1cnccn1)c1ccc(F)cc1Cl | > 37.7
CC(Cc1ccccc1)N1C(=O)c2ccccc2C1=O (centres undefined) | 10.6 (≈ 40 µM)
CNS(=O)(=O)c1cccc(C(=O)OCC(=O)NC2CCCC2)c1 | > 51.1
COc1ccc(Oc2cccc(Cl)c2CNC(=O)CSCC(=O)O)cc1 | > 59.4
CCc1nonc1NC(=O)c1oc2c(C)c(C)ccc2c1C | 0.6 (≈ 2 µM)
O=C(CN1CCCCC1)Nc1ccc(C(F)(F)F)cc1Cl | 2.5 (≈ 7.79 µM)
OC(c1ccc(F)cc1)C(CN1CCOCC1)c1ccccc1 (centres undefined) | > 47.3
Cn1c(=O)c2c(nc(Oc3ccccc3N)n2C)n(C)c1=O | > 45.2
CCOC(=O)c1sc(=NC(=O)c2ccc(Cl)s2)n(C)c1C | 0.5 (≈ 1.45 µM)
Cc1ccc(C(=O)NCCCNC(=O)c2ccccc2C)cn1 | > 46.7
Cc1cccc(NC2=CC(=O)CC(C)(C)C2)c1C | > 36.5
O=C(c1ccc(-c2cccc(Cl)c2Cl)o1)N1CCOCC1 | 47.1 (≈ 144 µM)
O=C(O)c1ccccc1NC(=O)C1C2C=CC(C2)C1C(=O)O (centres undefined) | > 45.2
Cc1cccc2cc(CNC3CCCC3)c(Cl)nc12 | > 41.2
CC(C)C(C)NC(=O)CN1C(=O)NC2(CCc3ccccc32)C1=O (centres undefined) | > 49.4
COCCn1c(=S)[nH]c2ccccc21 | > 31.2

SMILES | solubility kinetic [µg/mL]
Cn1c(=O)c2c(nc(N3CCOCC3)n2CCc2ccccc2)n(C)c1=O | 53.9 (≈ 146 µM)
O=c1[nH]c(=S)n(C2CC2)c(O)c1C=NCc1ccc(F)cc1 | 0.9 (≈ 2.82 µM)
CCOC(=O)C1CCCN1C(=O)c1ccc(OC)c(Br)c1 (centres undefined) | > 53.4
Cc1cccc(-n2cc(-c3ccccc3)[nH]c2=S)c1 | 8.7 (≈ 32.7 µM)
O=C(NCc1ccccc1)c1ccc2c(c1)C(=O)N(Cc1cccnc1)C2=O | 38.1 (≈ 103 µM)
COc1ccccc1NS(=O)(=O)c1cccc(NS(=O)(=O)c2ccc(Cl)c(C(=O)O)c2)c1 | > 74.5
Cc1ccc2nc(NC(=O)CC3Oc4ccccc4NC3=O)sc2c1 (centres undefined) | 3.8 (≈ 10.8 µM)
O=C(COC(=O)CCSc1ccc(F)cc1)NCc1ccc(F)cc1 | 26.5 (≈ 72.5 µM)
O=c1[nH]sc2cc(F)ccc12 | 22.7 (≈ 134 µM)
NC(=O)C1CCN(CCC(=O)Nc2ccc(F)c(F)c2)CC1 | > 46.7
COc1ccc(S(=O)(=O)N2CCCCCC2)cc1C(=O)OCC(=O)NC1CCS(=O)(=O)C1 (centres undefined) | > 73.3
O=C(CN1C(=O)NC2(CCOc3ccccc32)C1=O)N1CCCCC1 (centres undefined) | > 51.5
O=C(c1ccccc1F)N1CCN=C1c1ccccc1 | 36.2 (≈ 135 µM)
Nc1nc(SCC(=O)Nc2cccc([N+](=O)[O-])c2)n[nH]1 | > 44.1
COc1ccc(CCNC(=S)N(C)C)cc1OC | > 40.3
Cc1cc(NC(=O)CSc2nnc(C)n2-c2ccccc2C)no1 | > 51.5
O=C(NCCc1ccccc1)C1CC1 | > 28.4
O=C(OCC(=O)N1CCCCCC1)c1ccc(Cl)nc1 | > 44.5
O=C(CSc1nc(-c2ccc(F)cc2)cs1)NCC1CCCO1 (centres undefined) | > 52.9
Cc1cccc(OCC(=O)Nc2nccs2)c1C | 5.1 (≈ 19.4 µM)
Cc1cc(NC(=O)C2CC(=O)N(c3ccc(F)cc3)C2)no1 (centres undefined) | > 45.5
CC1(C)CC(=O)C(C2=NC3(CCCCCC3)Cc3ccccc32)=C(O)C1 | 49.8 (≈ 142 µM)
COc1ccccc1N1CCN(CCCCN2C(=O)C3CCCCN3C2=O)CC1 (centres undefined) | 52.4 (≈ 131 µM)
NC(=O)COC(=O)c1cccnc1Nc1ccccc1F | 36.1 (≈ 125 µM)

SMILES | solubility kinetic [µg/mL]
COc1cccc(OCC(=O)NC2CCCCCC2)c1 | > 41.6
Cc1cccc(C)c1N1C(=O)CCC(C)(C)C1=O | > 36.8
CCCC(=O)Nc1cc(C)c(NC(=O)c2ccco2)cn1 | 42.8 (≈ 149 µM)
Cc1cc(C)cc(C(=O)OCC(=O)NC(=O)NC2CCCC2)c1 | 4.1 (≈ 12.9 µM)
Cc1ccc(S(=O)(=O)N2CCN(C(=O)CCC(=O)Nc3ccc(F)cc3F)CC2)cc1 | > 67.7
COc1ccc(/C=C/C(=O)NC(=S)NCc2ccccc2)cc1OC | 2.4 (≈ 6.73 µM)
CNS(=O)(=O)c1ccc(NC(=O)Nc2ccc3c(c2)OCO3)cc1 | 15.6 (≈ 44.7 µM)
COCCCNC1=C(Cl)C(=O)c2ccccc2C1=O | 35.5 (≈ 127 µM)
CCN1CCN(c2ncnc3scc(-c4ccc(C)cc4)c23)CC1 | > 50.8
COC(=O)c1cc(NC(=O)COC(=O)C2COc3ccccc3O2)cc(C(=O)OC)c1 (centres undefined) | 54.7 (≈ 127 µM)
CCCn1c(SCC(=O)Nc2ccc(F)c(Cl)c2)nc(O)cc1=O | > 55.8
CC(C)(C)NC(=O)NC(=O)CN1CCCCC1 | > 36.2
Cc1noc(C)c1COc1ccc(C(=O)N2CCCC(C(N)=O)C2)cc1 (centres undefined) | > 53.6
CC1CN(C(=O)c2cc3cc(Cl)ccc3[nH]2)CC(C)O1 (centres undefined) | 24.3 (≈ 83 µM)
Cc1cccc(NC(=O)CN2CCSc3ccccc32)c1 | 5.2 (≈ 17.4 µM)
CN1CCN(S(=O)(=O)c2cccc3nsnc23)CC1 | > 44.8
Fc1ccccc1-c1nc(NC2CCCC2)c2ccccc2n1 | 11.1 (≈ 36.1 µM)
Cc1ccc(N2C(=O)CC(Sc3cccs3)C2=O)cc1 (centres undefined) | 35 (≈ 115 µM)
Cc1ccc(C(NC(=O)Nc2ccccn2)C(Cl)(Cl)Cl)cc1F (centres undefined) | < 0.3
COC(=O)N1c2ccccc2CCc2ccccc21 | 36.6 (≈ 144 µM)
CCCc1nnc(NC(=O)CCC(=O)N2CCCCC2)s1 | > 46.6
CC(=O)N1CCN(S(=O)(=O)c2cccc(C(=O)OCC(=O)N(Cc3ccccc3)C(C)(C)C)c2)CC1 | 60.5 (≈ 117 µM)
O=C(Cc1ccc(Br)cc1)OCC(=O)N1CCOCC1 | > 51.3
CCOc1ncccc1C(=O)Nc1ccc(S(=O)(=O)N2CC(C)CC(C)C2)cc1 (centres undefined) | 0.9 (≈ 2.16 µM)

SMILES | solubility kinetic [µg/mL]
Cc1ccccc1NC(=O)CSc1nc(O)cc(=O)n1C | 35.6 (≈ 117 µM)
COC(=O)c1sc(SC)nc1N | 30.4 (≈ 149 µM)
O=C(NCc1cccs1)c1cnc(Cl)c(Cl)c1 | > 43.1
O=C(NCCCn1ccnc1)/C(=C/c1ccco1)NC(=O)c1ccco1 | > 53.2
Nc1nc(Nc2ccccc2F)nc(NCc2ccccc2)c1[N+](=O)[O-] | < 0.1
Cc1ccc(OCC(=O)NC(C)c2ccccc2)c([N+](=O)[O-])n1 (centres undefined) | 47.1 (≈ 149 µM)
O=C(N1CCCCC1)C1(c2ccccc2)CCCCC1 | 3.6 (≈ 13.3 µM)
CCOC(=O)N1CCc2c(sc3[nH]c(=S)[nH]c(=S)c23)C1 | 43.1 (≈ 132 µM)
Clc1ccccc1NC1=NCCCS1 | > 34
O=C(O)CCN1C(=O)C2C3c4ccccc4C(c4ccccc43)[C@@H]2C1=O (some centres undefined) | 46.8 (≈ 135 µM)
CC(C)(C)C1CCc2onc(C(=O)O)c2C1 (centres undefined) | > 33.5
O=C(CC(Cc1ccccc1)C(=O)O)Nc1ccccc1 (centres undefined) | > 42.5
O=C(NCc1ccc(Cl)cc1)C1CCC(=O)N(C2CC2)C1 (centres undefined) | > 46
Cn1c(=O)n(C)c2cc(NC(=O)c3ccc(F)cc3)c(Br)cc21 | 8.2 (≈ 21.7 µM)
CCN(C(=O)CSc1nccc(=O)[nH]1)C1CCCCC1 | > 44.3
O=C1COc2ccc(C(=O)COC(=O)Cc3ccccc3F)cc2N1 | 24 (≈ 69.9 µM)
COc1ccc(S(=O)(=O)N2CCSCC2)cc1 | > 41
CC(C)N(C(=O)Nc1ccc2nccnc2c1)C(C)C | 2.3 (≈ 8.44 µM)
c1ccc(SCc2nc3ccccc3s2)nc1 | 17.8 (≈ 68.9 µM)
COc1cccc(C(=O)c2c(C)c(CCC#N)n3ccccc23)c1 | 43.5 (≈ 137 µM)
CC(C)N1C(=O)CCC1C(=O)NCc1cccs1 (centres undefined) | > 40
Cn1cccc1C(=O)OCC(=O)N1c2ccccc2NC(=O)C1(C)C | 12.7 (≈ 37.2 µM)
O=C(Nc1nc2ccccc2s1)c1c(F)cccc1Cl | 0.6 (≈ 1.96 µM)
